These results are taken from patent US8697911B2, “Rho kinase inhibitors” (Boehringer Ingelheim International GmbH, priority 2010, dated 2014).

One experiment concerns rat stroke model. To be noted: in vivo; cited from earlier work.
Experiment [1] concerns IL-1 beta-induced coronary stenosis. The settings on record: long term treatment; cited from earlier work.
In experiment [2] the target is T1, ROCKII (1-543) (Homo sapiens (Human), UniProt O75116). The experiment in a line: Luciferin-Luciferase Assay (Assay 1). The settings on record: luciferin-luciferase residual ATP; 750 nM ATP, 7.5 nM kinase. In kind it is biochemical. On the procedure:
1. Luciferin-Luciferase Assay
The activity of ROCKII (1-543) kinase is measured utilizing Cambrex PKLight ATP Detection Reagent, a homogeneous assay technology using luciferin-luciferase to quantify residual ATP. The assay is performed in 384-well low-volume, white, non-binding surface microtiter plates (Corning). The assay buffer is 25 mM HEPES, pH 7.5, 10 mM MgCl2, 50 mM KCl, 0.2% BSA, 0.01% CHAPS, 100 μM Na3VO4 and 0.5 mM DTT. Test compounds, dissolved in neat DMSO at 500 μg/mL, are serially diluted for dose response for a final starting concentration of 3 μg/mL in 1% DMSO of assay buffer. ROCKII (1-543) (62,408 Da) is diluted in assay buffer to a final concentration of 7.5 nM in a total volume of 15 μL. Positive controls are reaction mixtures containing no test compound; negative controls (blanks) are reaction mixtures containing no kinase. After 15 minutes of pre-incubation of the test compounds with the kinase, a mixture of ATP and peptide substrate ([…]) in assay buffer is added to each well for a final concentration of 750 nM ATP and 500 nM peptide, respectively. After 90 minutes of incubation of the kinase reaction at 28° C. temperature, 10 μL of PKLight ATP Detection Reagent (warmed to room temperature previously) is added to each well. The assay plate is incubated at room temperature for additional 15 minutes and then read on an Analyst in luminescence mode. Dose-response experiments for each of the test compounds are conducted in quadruplet. IC50 values of test compounds represent 50% response of the positive control from the dose-response curve.
Target sequence in this assay (O75116 1-543): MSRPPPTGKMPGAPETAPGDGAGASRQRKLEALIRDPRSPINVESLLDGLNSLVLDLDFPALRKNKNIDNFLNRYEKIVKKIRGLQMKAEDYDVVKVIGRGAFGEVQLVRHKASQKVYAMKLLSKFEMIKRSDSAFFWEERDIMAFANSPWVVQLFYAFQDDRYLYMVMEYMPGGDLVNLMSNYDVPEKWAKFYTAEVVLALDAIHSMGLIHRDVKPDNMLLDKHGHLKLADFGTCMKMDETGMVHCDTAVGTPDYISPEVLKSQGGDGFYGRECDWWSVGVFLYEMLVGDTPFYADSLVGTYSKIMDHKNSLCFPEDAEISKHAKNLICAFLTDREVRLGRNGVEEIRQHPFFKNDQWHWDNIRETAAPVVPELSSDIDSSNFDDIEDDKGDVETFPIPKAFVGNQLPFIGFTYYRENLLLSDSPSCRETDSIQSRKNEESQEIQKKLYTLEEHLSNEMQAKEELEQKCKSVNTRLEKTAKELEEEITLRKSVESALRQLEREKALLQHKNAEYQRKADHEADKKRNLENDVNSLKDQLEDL

The target in experiment [3] is T1, ROCKII (1-543). In words: IMAP Assay (Assay 2). In kind it is biochemical. To be noted: IMAP fluorescence polarization; 100 μM ATP, 1 nM kinase. On the procedure: This assay is performed using FAM S6 substrate peptide (Catalogue #R7184) and IMAP FP Screening Express Kit detection reagents from Molecular Devices (Sunnyvale, Calif.) in IMAP kinase reaction buffer (Tris-HCl, pH 7.2, 10 mM MgCl2, 0.05% NaN3, 0.1% phosphate-free BSA) containing 1 mM DTT. Test compounds dissolved in neat DMSO at 0.3 mg/mL are serially diluted 1 to 3 for concentration response in 100% DMSO. The DMSO serial dilutions are further diluted 33.33-fold in kinase reaction buffer, and 10 μL of this buffer dilution is transferred to Corning black 96-well half area NBS plates for a final top concentration of 3 μg/mL in 1% DMSO. 10 μL aliquot of 3 nM ROCKII (1-543) diluted in kinase reaction buffer is added to each assay well for a final concentration of 1 nM kinase. 10 μL of a mixture of 600 nM FAM S6 peptide and 300 μM ATP diluted in kinase reaction buffer is added to each well for a final concentration of 200 nM peptide and 100 μM ATP. The kinase reaction mixture is incubated for 60 minutes at room temperature. Positive controls are reaction mixtures containing no test compound and negative controls (blanks) are reaction mixtures containing no kinase. The kinase reaction is stopped by addition of 60 μL IMAP progressive binding reagent (Catalog #R7284) diluted 400-fold in 1× Binding buffer A. After 30 min of incubation at room temperature, the plates are read for fluorescence polarization on Analyst Plate Reader using Ex 485 nm, Em 530 nm, and FL 505 dichroic minor. The mP signals are converted to percent of control (POC) values using the formula: POC=100*(Signal−BCTRL)÷(PCTRL−BCTRL)
Where Signal is the test well signal, BCTRL is the average of background (negative control) well signals on the plate and PCTRL is the average of positive control well signals on the plate. For the concentration-responsive compounds, POC as a function of test compound concentration is fitted to a 4-parameter logistic equation of the form: Y=A+(B−A)/[1+(x/C)D]
Where A, B, C, and D are fitted parameters (parameter B is fixed at zero POC), and x and y are the independent and dependent variables, respectively. The IC50 is determined as the inflection point parameter, C.
Target sequence in this assay (O75116 1-543, species assumed): as the sequence (O75116 1-543) above
(In general: In fluorescence polarisation assays a small probe gives low polarisation when free and higher when bound to something large.)

In general, IC50 refers to the concentration that inhibits the measured activity by half. Low values mean higher potency, high ones lower potency.

For the molecule `O=S(=O)(c1cccc2cnccc12)N1CCCNCC1` [fasudil], the “infarct size and neurologic deficit” value with rat stroke model was “reduce both the infarct size and neurologic deficit”. In addition, in experiment [1], the coronary constrictive remodeling result is “promote a regression of coronary constrictive remodeling” and the coronary stenosis entry was “progressively reduce coronary stenosis”.

`CN1CCc2nc(NC(=O)c3cccc(CNC(=O)c4cccc(-c5cn[nH]c5)c4)c3)sc2C1` [compound 6]: the results for the IC50 at ROCKII (1-543) [2] and on ROCKII (1-543) [3] were 2 nM and 0.53 nM, respectively.

As to `CN1CCc2ccc(NC(=O)c3cccc(CNC(=O)c4cc5cc(C#N)ccc5n4C)c3)cc2C1` [compound 94], the IC50 was determined as 8.1 nM on ROCKII (1-543) [2] and 46 nM against ROCKII (1-543) [3].

For the molecule `CN1CCc2ccc(NC(=O)c3cccc(CNC(=O)c4ccc(-n5cncn5)cc4)c3)cc2C1` [compound 178, 4-[1,2,4]triazol-1-yl-benzoic acid 3-(2-methyl-1,2,3,4-tetrahydro-isoquinolin-7-ylcarbamoyl)-benzylamide], the IC50 was 5.7 nM at ROCKII (1-543) [2] and 48 nM at ROCKII (1-543) [3].

Regarding `Cc1c(C(=O)NCc2cccc(C(=O)Nc3ccc4c(c3)CN(C)CC4)c2)nnn1-c1nonc1N` [compound 125], the IC50 at ROCKII (1-543) [2] is 5.9 nM; on ROCKII (1-543) [3] it was 26 nM.

On to `CN1CCc2ccc(NC(=O)c3cccc(CNC(=O)c4cc5ccc(C(N)=O)cc5[nH]4)c3)cc2C1` [compound 54], for which the IC50 against ROCKII (1-543) [2] was found to be 1.3 nM; on ROCKII (1-543) [3] it was 0.45 nM.

On to `CN1CCc2ccc(NC(=O)c3cccc(CNC(=O)c4cccc(-c5cnco5)c4)c3)cc2C1` [compound 190], for which the IC50 worked out at 6.5 nM against ROCKII (1-543) [2] and 56 nM against ROCKII (1-543) [3].

In the case of `N[C@H]1CCc2nc(NC(=O)c3cccc(CNC(=O)c4cccc(-c5cn[nH]c5)c4)c3)sc2C1` [compound 30], the IC50 stood at 0.72 nM against ROCKII (1-543) [2] and 0.16 nM at ROCKII (1-543) [3].

For `CN1CCc2nc(NC(=O)c3cccc(CNC(=O)c4csc(-c5cccnc5)n4)c3)sc2C1` [compound 14], the values for the IC50 against ROCKII (1-543) [2] and at ROCKII (1-543) [3] were 4.8 nM and 7.9 nM, respectively.

In the case of `CN1CCc2ccc(NC(=O)c3cccc(CNC(=O)c4cc5cc(C#N)ccc5[nH]4)c3)cc2C1` [compound 80], the IC50 against ROCKII (1-543) [2] amounted to 1.5 nM; against ROCKII (1-543) [3] it was 0.58 nM.

`Cc1cc(-c2ccc(C(=O)NCc3cccc(C(=O)Nc4nc5c(s4)CN(C)CC5)c3)cc2)ccn1` [compound 144, 3-[4-(2-picoline-4-yl)-benzamidomethyl-N-(5-methyl-4,5,6,7-tetrahydro-thiazolo[5,4-c]pyridin-2-yl)-benzamide]]: the IC50 was determined as 2.6 nM on ROCKII (1-543) [2] and 4.35 nM on ROCKII (1-543) [3].

Regarding `Cc1cc(-c2ncc(C(=O)NCc3cccc(C(=O)Nc4nc5c(s4)CN(C)CC5)c3)s2)ccn1` [compound 154], the IC50 against ROCKII (1-543) [2] is 9.5 nM; against ROCKII (1-543) [3], 39 nM.

As for `CN1CCc2ccc(NC(=O)c3cccc(CNC(=O)c4cc5ccc(C#N)cc5[nH]4)c3)cc2C1` [compound 52], the IC50 is 2.2 nM against ROCKII (1-543) [2] and 8.1 nM against ROCKII (1-543) [3].

Consider `CN1CCc2ccc(NC(=O)c3cccc(CNC(=O)c4cccc(-c5cn[nH]c5)c4)c3)cc2C1` [compound 3], for which the IC50 was 4 nM at ROCKII (1-543) [2] and 5.1 nM against ROCKII (1-543) [3].

`CN(C)[C@H]1CCc2nc(NC(=O)c3cccc(CNC(=O)c4cn5cc(C#N)ccc5n4)c3)sc2C1` [compound 100]: the IC50 at ROCKII (1-543) [2] was 1.7 nM; against ROCKII (1-543) [3] it was 2.6 nM.

Turning to `CN1CCc2ccc(NC(=O)c3cccc(CNC(=O)c4ccc(C5=CSNN5)cc4)c3)cc2C1` [compound 31], the IC50 at ROCKII (1-543) [2] and at ROCKII (1-543) [3] was 4.6 nM throughout.

For `Cc1nnnn1-c1ccc(C(=O)NCc2cccc(C(=O)Nc3nc4c(s3)C[C@H](N)CC4)c2)cc1` [compound 36], the results for the IC50 on ROCKII (1-543) [2] and against ROCKII (1-543) [3] were 1.4 nM and 3 nM, respectively.

Turning to `CN1CCc2ccc(NC(=O)c3cccc(CNC(=O)c4cn5ccc(C(N)=O)cc5n4)c3)cc2C1` [compound 50, imidazo[1,2-a]pyridine-2,7-dicarboxylic acid 7-amide 2-[3-(2-methyl-1,2,3,4-tetrahydro-isoquinolin-7-ylcarbamoyl)-benzylamide]], the figures for the IC50 against ROCKII (1-543) [2] and against ROCKII (1-543) [3] were 2.9 nM and 11 nM, respectively.

For the molecule `Cc1nc(-c2ccncc2)sc1C(=O)NCc1cccc(C(=O)Nc2ccc3c(c2)CN(C)CC3)c1` [compound 95], the IC50 on ROCKII (1-543) [2] came to 1.4 nM; against ROCKII (1-543) [3], 1.25 nM.

With `N[C@H]1CCc2nc(NC(=O)c3cccc(CNC(=O)c4cccc(-c5cccnc5)c4)c3)sc2C1` [compound 42], the values for the IC50 against ROCKII (1-543) [2] and against ROCKII (1-543) [3] were 1.2 nM and 2 nM, respectively.

Consider `CN1CCc2ccc(NC(=O)c3cccc(CNC(=O)c4cnc(-c5cccnc5)s4)c3)cc2C1` [compound 194], for which the IC50 against ROCKII (1-543) [2] was found to be 4.8 nM; against ROCKII (1-543) [3], 30 nM.

On to `CN1CCc2nc(NC(=O)c3cccc(CNC(=O)N4CCc5c(C#N)cccc54)c3)sc2C1` [compound 90], for which the IC50 was 3.1 nM on ROCKII (1-543) [2] and 17 nM against ROCKII (1-543) [3].

As to `CN1CCc2ccc(NC(=O)c3cccc(CNC(=O)c4ccc(-n5ccnc5)cc4)c3)cc2C1` [compound 39], the figures for the IC50 against ROCKII (1-543) [2] and against ROCKII (1-543) [3] were 4.9 nM and 9.9 nM, respectively.

As for `CN1CCc2ccc(NC(=O)c3cccc(CNC(=O)c4csc(-c5cccnc5)n4)c3)cc2C1` [compound 27], the IC50 on ROCKII (1-543) [2] was determined as 9.8 nM; against ROCKII (1-543) [3], 45 nM.

Consider `Cc1c(C(=O)NCc2cccc(C(=O)Nc3nc4c(s3)C[C@@H](N3CCOCC3)CC4)c2)nnn1-c1nonc1N` [compound 152], for which the results for the IC50 against ROCKII (1-543) [2] and at ROCKII (1-543) [3] were 1.9 nM and 0.57 nM, respectively.

With `N[C@H]1CCc2nc(NC(=O)c3cccc(CNC(=O)c4ccc(-c5csnn5)cc4)c3)sc2C1` [compound 26], the IC50 against ROCKII (1-543) [2] came to 7.6 nM; on ROCKII (1-543) [3] it was 40 nM.

Regarding `CN1CCc2ccc(NC(=O)c3cccc(CNC(=O)c4ccc(-c5cnco5)cc4)c3)cc2C1` [compound 49], the results for the IC50 against ROCKII (1-543) [2] and on ROCKII (1-543) [3] were 2.6 nM and 26 nM, respectively.

Take `CN1CCc2ccc(NC(=O)c3cccc(CNC(=O)c4ccc5cc(O)ccc5c4)c3)cc2C1` [compound 29]: the IC50 came out at 2.6 nM against ROCKII (1-543) [2] and 2 nM on ROCKII (1-543) [3].

Regarding `CN1CCc2ccc(NC(=O)c3cccc(CNC(=O)c4cc(-c5ccncc5)[nH]n4)c3)cc2C1` [compound 119], the IC50 on ROCKII (1-543) [2] worked out at 1.3 nM; against ROCKII (1-543) [3], 0.22 nM.

In the case of `CN1CCc2ccc(NC(=O)c3cccc(CNC(=O)c4cc5cc(C(N)=O)ccc5[nH]4)c3)cc2C1` [compound 86], the IC50 turned out to be 1.7 nM at ROCKII (1-543) [2] and 0.85 nM against ROCKII (1-543) [3].

As for `CN1CCc2ccc(NC(=O)c3cccc(CNC(=O)c4cn5cc(C(N)=O)ccc5n4)c3)cc2C1` [compound 21], the IC50 was 5.9 nM at ROCKII (1-543) [2] and 25 nM at ROCKII (1-543) [3].

For `CN1CCc2ccc(NC(=O)c3cccc(CNC(=O)c4ccc(-c5cc[nH]n5)cc4)c3)cc2C1` [compound 155], the IC50 was determined as 8.1 nM at ROCKII (1-543) [2] and 47 nM at ROCKII (1-543) [3].

Consider `Cc1c(C(=O)NCc2cccc(C(=O)Nc3nc4c(s3)CN(C)CC4)c2)nnn1-c1nonc1N` [compound 44], for which the results for the IC50 on ROCKII (1-543) [2] and against ROCKII (1-543) [3] were 1.8 nM and 9.3 nM, respectively.

With `CN1CCc2nc(NC(=O)c3cccc(CNC(=O)c4cccc(-c5cccnc5)c4)c3)sc2C1` [compound 4], the IC50 came out at 22.5 nM on ROCKII (1-543) [2] and 73 nM against ROCKII (1-543) [3].
